Where no end group is shown, it is not given here.
How the values were obtained:
[1] = molecular target: T1, AnkR_repeats (Mus musculus, UniProt Q02357); test: ITC binding to AnkR_repeats; settings: VP-ITC, 25°C, 50 mM Tris, 100 mM NaCl, 1 mM EDTA, 1 mM DTT, pH 7.5, one-site binding model, ND = no detectable binding
T1 construct: thioredoxin-His6 (N); made in house; host or cells: Escherichia coli BL21 (DE3)
Source text: (§1) The coding sequences of AnkB_repeats (residues 28–873) were PCR amplified using the full-length human 220 kDa AnkB as the template. The coding sequences of the AnkR constructs, including AnkR_repeats (residues 42–853), and the full length AnkR C-terminal domain (residues 1529–1907), were PCR amplified from a mouse muscle cDNA library. The coding sequence of AnkG_repeats (residues 38–855) were PCR amplified using the full-length rat 190 kDa AnkG as the template. The fusion construct of AnkR_AS and AnkB_repeats was made by standard two-step PCR with a coding sequence of thrombin recognition residues ‘GSLVPRGS’ as the linker. This construct was used to crystallize and determine the complex structure. The same strategy was used in making other fusion constructs, including the Nav1.2_ABD-C/AnkB_repeats_R1–9 fusion construct containing residues 1103–1129 from mouse Nav1.2 and human AnkB residues 28–318 followed by a capping sequence corresponding to the αB of R24 (residues 814–822) and the AnkR_AS/AnkG_repeats fusion construct. […]
(§2) Isothermal titration calorimetry (ITC) measurements were carried out on a VP-ITC MicroCal calorimeter (MicroCal, Northampton, MA) at 25°C. […] The titration data were analyzed using the program Origin 7.0 and fitted by the one-site binding model.

[2] = molecular target: T2, AnkG R1-6 (Rattus norvegicus, UniProt O70511, DEL222-823); test: ITC binding to AnkG R1-6 truncation; settings: 25°C, pH 7.5, one-site binding model
T2 construct: thioredoxin-His6 (N); made in house; host or cells: Escherichia coli BL21 (DE3)
T2 sequence (O70511 with tags, fused parts or gaps DEL222-823 limits assumed): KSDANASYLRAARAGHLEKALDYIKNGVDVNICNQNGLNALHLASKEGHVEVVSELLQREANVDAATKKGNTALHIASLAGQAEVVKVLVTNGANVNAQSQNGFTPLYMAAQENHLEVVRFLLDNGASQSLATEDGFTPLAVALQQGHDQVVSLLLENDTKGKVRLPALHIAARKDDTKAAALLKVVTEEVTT
Source text: as §1, §2

[3] = molecular target: T3, AnkB_repeats WT (Homo sapiens, UniProt Q01484); test: Fluorescence polarization binding to AnkB_repeats WT; settings: deduced from ANK repeats WT and site mutants
T3 construct: thioredoxin-His6 (N); made in house; host or cells: Escherichia coli BL21 (DE3)
T3 sequence (Q01484 28-873 isoform Q01484-2): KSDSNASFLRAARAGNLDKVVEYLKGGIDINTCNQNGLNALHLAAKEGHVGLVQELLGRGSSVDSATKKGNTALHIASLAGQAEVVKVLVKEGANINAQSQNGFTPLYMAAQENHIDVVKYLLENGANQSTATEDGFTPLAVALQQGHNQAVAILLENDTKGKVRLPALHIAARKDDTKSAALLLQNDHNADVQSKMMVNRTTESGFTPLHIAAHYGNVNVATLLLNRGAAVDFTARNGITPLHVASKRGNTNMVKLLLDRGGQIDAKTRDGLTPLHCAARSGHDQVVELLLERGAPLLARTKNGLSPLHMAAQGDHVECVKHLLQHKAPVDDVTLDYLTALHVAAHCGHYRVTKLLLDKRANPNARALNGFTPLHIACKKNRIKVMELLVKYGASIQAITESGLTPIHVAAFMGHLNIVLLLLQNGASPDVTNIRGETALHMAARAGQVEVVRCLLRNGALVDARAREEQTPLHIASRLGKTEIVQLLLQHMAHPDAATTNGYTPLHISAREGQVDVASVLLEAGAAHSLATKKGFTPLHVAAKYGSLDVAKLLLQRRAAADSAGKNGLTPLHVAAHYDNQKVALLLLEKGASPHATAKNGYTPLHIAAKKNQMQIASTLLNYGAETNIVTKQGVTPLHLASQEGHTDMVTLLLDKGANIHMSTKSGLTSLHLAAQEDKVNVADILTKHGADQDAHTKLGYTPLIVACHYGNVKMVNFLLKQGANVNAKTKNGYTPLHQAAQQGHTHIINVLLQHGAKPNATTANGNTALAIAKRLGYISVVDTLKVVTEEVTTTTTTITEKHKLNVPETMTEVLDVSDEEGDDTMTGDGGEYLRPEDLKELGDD
Source text: as §1, with “construct. For truncation mutations of ANK repeats constructs, the same capping sequence was added to the appropriate region of the C-terminus of each construct for protein stabilization.” for “construct.”
Fluorescence assays were performed on a PerkinElmer LS-55 fiuorimeter equipped with an automated polarizer at 25°C. […]

[4] = molecular target: T4, AnkG_repeats (Rattus norvegicus, UniProt O70511); test: ITC binding to AnkG_repeats WT; settings: deduced from site mutants and truncations
T4 construct: thioredoxin-His6 (N); made in house; host or cells: Escherichia coli BL21 (DE3)
T4 sequence (O70511 38-855): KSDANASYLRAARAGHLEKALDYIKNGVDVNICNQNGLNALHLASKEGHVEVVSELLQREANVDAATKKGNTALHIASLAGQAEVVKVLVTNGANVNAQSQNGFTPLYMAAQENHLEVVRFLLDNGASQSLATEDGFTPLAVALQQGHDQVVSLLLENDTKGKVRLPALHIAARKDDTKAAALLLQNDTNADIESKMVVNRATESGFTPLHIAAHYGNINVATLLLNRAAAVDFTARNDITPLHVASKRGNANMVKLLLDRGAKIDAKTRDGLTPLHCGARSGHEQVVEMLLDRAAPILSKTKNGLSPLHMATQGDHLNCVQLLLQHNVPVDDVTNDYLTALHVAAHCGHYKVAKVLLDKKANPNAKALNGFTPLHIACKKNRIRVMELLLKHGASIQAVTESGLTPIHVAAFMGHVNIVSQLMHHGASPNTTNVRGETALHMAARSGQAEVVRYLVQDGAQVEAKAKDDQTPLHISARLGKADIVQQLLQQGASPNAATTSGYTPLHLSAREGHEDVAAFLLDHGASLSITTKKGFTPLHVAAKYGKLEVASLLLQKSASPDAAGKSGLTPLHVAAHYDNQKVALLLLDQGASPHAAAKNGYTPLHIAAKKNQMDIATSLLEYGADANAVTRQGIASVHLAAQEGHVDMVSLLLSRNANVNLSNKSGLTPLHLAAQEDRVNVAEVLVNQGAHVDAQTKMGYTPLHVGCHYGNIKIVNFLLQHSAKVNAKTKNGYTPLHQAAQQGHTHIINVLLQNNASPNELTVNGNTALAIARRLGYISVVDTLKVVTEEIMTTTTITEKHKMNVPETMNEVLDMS
Source text: The coding sequences of AnkB_repeats (residues 28–873) were PCR amplified using the full-length human 220 kDa AnkB as the template. The coding sequences of the AnkR constructs, including AnkR_repeats (residues 42–853), and the full length AnkR C-terminal domain (residues 1529–1907), were PCR amplified from a mouse muscle cDNA library. The coding sequence of AnkG_repeats (residues 38–855) were PCR amplified using the full-length rat 190 kDa AnkG as the template. The fusion construct of AnkR_AS and AnkB_repeats was made by standard two-step PCR with a coding sequence of thrombin recognition residues ‘GSLVPRGS’ as the linker. This construct was used to crystallize and determine the complex structure. The same strategy was used in making other fusion constructs, including the Nav1.2_ABD-C/AnkB_repeats_R1–9 fusion construct containing residues 1103–1129 from mouse Nav1.2 and human AnkB residues 28–318 followed by a capping sequence corresponding to the αB of R24 (residues 814–822) and the AnkR_AS/AnkG_repeats fusion construct. For truncation mutations of ANK repeats constructs, the same capping sequence was added to the appropriate region of the C-terminus of each construct for protein stabilization. Mouse Nav1.2 (NP_001092768.1) and mouse neurofascin (CAD65849.1) were used here for studying their interaction with ankyrins. Peptides for mouse KCNQ2 (NP_034741.2, residues 826–845) and mouse Cav1.3 (NP_083257.2, residues 2134–2166) were commercially synthesized. For simplicity, we used human 220 kDa AnkB for the amino acid numbering throughout the manuscript. For the corresponding point mutations made on AnkG_repeats, each residue number should be increased by 10. All point mutations were created using the Quick Change site-directed mutagenesis kit and confirmed by DNA sequencing. […]
as §2

[5] = molecular target: T5, AnkG_repeats F131,F164Q (Rattus norvegicus, UniProt O70511, F141Q/F174Q); test: ITC binding to AnkG_repeats FF mutant (site 1); settings: in words
T5 construct: thioredoxin-His6 (N); made in house; host or cells: Escherichia coli BL21 (DE3)
T5 sequence (O70511 38-855 F141Q/F174Q): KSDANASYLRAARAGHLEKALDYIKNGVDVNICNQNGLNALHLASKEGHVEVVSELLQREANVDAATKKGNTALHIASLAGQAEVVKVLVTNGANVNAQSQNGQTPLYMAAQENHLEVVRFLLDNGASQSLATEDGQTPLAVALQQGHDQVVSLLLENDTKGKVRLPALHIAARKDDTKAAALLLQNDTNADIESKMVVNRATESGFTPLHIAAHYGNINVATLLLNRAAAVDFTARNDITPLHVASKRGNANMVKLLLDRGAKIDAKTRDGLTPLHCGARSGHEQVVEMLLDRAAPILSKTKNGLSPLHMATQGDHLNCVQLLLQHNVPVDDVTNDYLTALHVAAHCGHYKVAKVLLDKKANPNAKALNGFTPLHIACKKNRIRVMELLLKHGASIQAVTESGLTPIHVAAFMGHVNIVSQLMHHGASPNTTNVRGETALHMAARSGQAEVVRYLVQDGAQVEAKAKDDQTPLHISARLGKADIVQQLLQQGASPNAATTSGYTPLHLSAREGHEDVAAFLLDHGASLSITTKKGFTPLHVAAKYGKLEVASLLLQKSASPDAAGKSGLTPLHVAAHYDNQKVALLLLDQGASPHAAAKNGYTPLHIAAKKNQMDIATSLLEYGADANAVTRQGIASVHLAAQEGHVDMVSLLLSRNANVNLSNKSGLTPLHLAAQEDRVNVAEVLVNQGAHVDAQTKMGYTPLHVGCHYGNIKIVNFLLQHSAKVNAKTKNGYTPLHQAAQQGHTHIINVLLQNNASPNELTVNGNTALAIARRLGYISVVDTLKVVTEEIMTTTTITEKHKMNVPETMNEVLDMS
Source text: (§3) We next examined the interactions of AnkG_repeats with Nav1.2 and Nfasc using the structure of the ANK repeats/AS complex to design mutations specifically affecting each predicted site. […] To probe the binding sites of Nav1.2 and Nfasc on AnkG, we constructed AnkG_repeat mutants with the corresponding hydrophobic residues in binding site 1 (Phe131 and Phe164 in R4 and R5, termed ‘FF’), site 2 (Ile267 and Leu300 in R8 and R9; ‘IL’), and site 3 (Leu366, Phe399, and Leu432 in R11, R12, and R13; ‘LFL’) substituted with Gln (Figure 3D), and examined their binding to the two targets. […] The mutations in site 3 weakened ANK repeat binding to both targets (Figure 3F, Figure 3—figure supplement 3 and Figure 3—figure supplement 4). […] This conclusion is further supported by the binding of the two targets to various AnkG_repeat truncation mutants (Figure 3F, Figure 3—figure supplement 3 and Figure 3—figure supplement 4).
(§4) The coding sequences of AnkB_repeats (residues 28–873) were PCR amplified using the full-length human 220 kDa AnkB as the template. […]
as §2

[6] = molecular target: T6, AnkG_repeats L366,F399,L432Q (Rattus norvegicus, UniProt O70511, F409Q/L376Q/L442Q); test: ITC binding to AnkG_repeats LFL mutant (site 3); settings: in words
T6 construct: thioredoxin-His6 (N); made in house; host or cells: Escherichia coli BL21 (DE3)
T6 sequence (O70511 38-855 L376Q/F409Q/L442Q): as the sequence (O70511 38-855 F141Q/F174Q) above, with Q104F, Q137F, L339Q, F372Q, L405Q counted along it
Source text: as §3, §4, §2

[7] = molecular target: T4, AnkG_repeats; test: Analytical gel filtration of AS-AnkG_repeats fusion with Nav1.2 or Nfasc ABD; type: binding; settings: Superose 12 10/300 GL, 50 mM Tris, 100 mM NaCl, 1 mM EDTA, 1 mM DTT, pH 7.5
Source text: as §1, with “construct. For truncation mutations of ANK repeats constructs, the same capping sequence was added to the appropriate region of the C-terminus of each construct for protein stabilization. Mouse Nav1.2 (NP_001092768.1) and mouse neurofascin (CAD65849.1) were used here for studying their interaction with ankyrins.” for “construct.”

[8] = molecular target: T7, AnkG_repeats I267,L300Q (Rattus norvegicus, UniProt O70511, I277Q/L310Q); test: ITC binding to AnkG_repeats IL mutant (site 2); settings: in words
T7 construct: thioredoxin-His6 (N); made in house; host or cells: Escherichia coli BL21 (DE3)
T7 sequence (O70511 38-855 I277Q/L310Q): as the sequence (O70511 38-855 F141Q/F174Q) above, with Q104F, Q137F, I240Q, L273Q counted along it
Source text: as §3, §4, §2

T1 sequence (Q02357 5-816): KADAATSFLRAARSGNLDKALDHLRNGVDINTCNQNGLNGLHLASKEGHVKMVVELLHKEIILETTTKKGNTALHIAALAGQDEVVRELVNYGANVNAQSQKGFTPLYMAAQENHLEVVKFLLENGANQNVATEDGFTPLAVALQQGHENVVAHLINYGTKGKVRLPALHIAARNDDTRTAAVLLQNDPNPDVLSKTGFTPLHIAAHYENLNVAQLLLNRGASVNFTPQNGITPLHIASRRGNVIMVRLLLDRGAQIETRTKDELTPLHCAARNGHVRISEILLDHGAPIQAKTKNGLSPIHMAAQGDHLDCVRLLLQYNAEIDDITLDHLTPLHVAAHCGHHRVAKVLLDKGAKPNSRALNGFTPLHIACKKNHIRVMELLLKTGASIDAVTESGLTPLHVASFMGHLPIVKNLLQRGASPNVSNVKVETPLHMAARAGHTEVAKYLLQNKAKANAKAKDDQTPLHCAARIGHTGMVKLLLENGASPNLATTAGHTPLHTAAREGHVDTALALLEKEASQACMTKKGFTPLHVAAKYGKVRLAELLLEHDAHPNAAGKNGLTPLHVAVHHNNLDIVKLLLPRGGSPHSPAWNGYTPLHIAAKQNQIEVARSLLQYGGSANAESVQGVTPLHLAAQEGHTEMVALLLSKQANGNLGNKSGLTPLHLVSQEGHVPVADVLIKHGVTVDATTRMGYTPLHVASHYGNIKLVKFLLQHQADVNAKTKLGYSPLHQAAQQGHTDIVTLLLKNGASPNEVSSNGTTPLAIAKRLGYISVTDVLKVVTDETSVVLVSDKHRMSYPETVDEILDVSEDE

CADQYWNEVAVIDAIPLAATEHDTMLEMSDMQVWSAGLTPSLVTAEDS [AnkR_AS]
Kd [1]: 360 ± 20 nM

TVTVPIAVGESDFENLNTEEFSSESDM [ABD-C (1103 - 1129)]
Kd [2]: 2300 ± 200 nM

FITC-Cav1.3 peptide: mouse Cav1.3 (NP_083257.2, residues 2134–2166), commercially synthesized (NGDMGPISHRQDYELQDFGPGYSDEEPDPGREE; also: FITC label; UniProt Q99246 2134-2166, looked up, fragment)
ANK repeat sites used for binding [3]: primarily relies on site 2

SDDSLVDYGEGGEGQFNEDGSFIGQYTV [Nfasc_ABD]
ANK repeat sites used for binding [4]: sites 2 and 3
effect of site 1 mutations on binding [5]: no impact
effect of site 3 mutations on binding [6]: weakened
complex formation with AS-AnkG_repeats fusion protein [7]: No complex peaks formed
effect of site 2 mutations on binding [8]: significantly weakened

Reference: paper PMC4358367, “Structural basis of diverse membrane target recognitions by ankyrins” (eLife, 2014)
